Columns and labels:
[1] = target: T1, Trypanosoma cruzi spermidine synthase (TcSpdSyn) (Trypanosoma cruzi, UniProt Q4DA73); experiment: X-ray co-crystal structure; SSAT1-coupled enzyme inhibition assay; type: biochemical
T1 construct: gene Tc00.1047053510339.50
T1 sequence (Q4DA73 1-296): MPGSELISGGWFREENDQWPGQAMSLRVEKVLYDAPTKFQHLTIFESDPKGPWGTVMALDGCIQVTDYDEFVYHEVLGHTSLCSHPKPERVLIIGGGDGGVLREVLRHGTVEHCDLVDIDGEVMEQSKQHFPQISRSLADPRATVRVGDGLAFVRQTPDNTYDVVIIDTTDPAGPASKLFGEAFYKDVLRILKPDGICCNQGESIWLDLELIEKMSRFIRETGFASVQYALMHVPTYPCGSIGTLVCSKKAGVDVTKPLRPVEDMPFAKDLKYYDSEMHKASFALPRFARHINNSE

[2] = target: T1, Trypanosoma cruzi spermidine synthase (TcSpdSyn); experiment: X-ray co-crystal structure; SSAT1-coupled enzyme inhibition assay (hydrochloride salt); type: biochemical

IC50 [1] [µM]	IC50 [2] [µM]	Compound
82.3	–	COc1ccc(C2=N[C@H](C)CN2)c(O)c1 [compound 1]
–	43.4	COc1ccc(Nc2ccnc3ccccc23)cc1 [compound 2]
